Test results reported in ChEMBL document CHEMBL1201862, “PubChem BioAssay data set” (2004).
The source made the active and inactive calls.

Columns and labels:
[1] = target: Voltage-gated inwardly rectifying potassium channel KCNH2 (Homo sapiens, UniProt Q12809); test: concentration-dependent hERG rescue from blockers – cell-based, thallium flux, dose response (AID 2121); type: ADME
[2] = OVCAR-3 cell viability loss – plate reader, dry powder samples, PAX8 inhibitor project, dose response (AID 743044); type: functional, cell-based
Paired box protein Pax-8 = Paired box protein Pax-8 (Homo sapiens, UniProt Q06710); test: PAX8 transcriptional activity inhibition in RMG-I – RMG-I cells, luciferase, cherry-pick, dose response (AID 687027); type: functional, cell-based;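 further: luciferase reporter driven by Pax8 target thyroperoxidase promoter measured by SteadyGlo luminescence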
[3] = A2780 cell killing – plate reader, dry powder samples, cytotoxicity control, dose response (AID 743046); type: functional, cell-based
[4] = OVCAR8 cell viability loss – plate reader, dry powder samples, PAX8 project, dose response (AID 743197); type: functional, cell-based; details: OVCAR-8
[5] = target: T1, Low molecular weight phosphotyrosine protein phosphatase (Homo sapiens, UniProt P24666); type: functional; details: read-out: IC50_Mean;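 further: Dose-response confirmation assay measuring inhibition of LMPTP enzyme activity by fluorescence intensity read-out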
T1 sequence (P24666 whole entry): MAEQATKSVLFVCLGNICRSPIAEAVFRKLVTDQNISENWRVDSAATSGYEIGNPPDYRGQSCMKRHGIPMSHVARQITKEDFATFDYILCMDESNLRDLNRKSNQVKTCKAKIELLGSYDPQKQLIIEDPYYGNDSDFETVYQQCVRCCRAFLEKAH

[6] = target: T2, Carboxy-terminal domain RNA polymerase II polypeptide A small phosphatase 1 (Homo sapiens, UniProt Q9GZU7); test: CTDSP1 inhibitors, concentration-response, biochemical, absorbance readout, ultra-high-throughput screen actives (AID 540297); type: functional
T2 sequence (Q9GZU7 whole entry): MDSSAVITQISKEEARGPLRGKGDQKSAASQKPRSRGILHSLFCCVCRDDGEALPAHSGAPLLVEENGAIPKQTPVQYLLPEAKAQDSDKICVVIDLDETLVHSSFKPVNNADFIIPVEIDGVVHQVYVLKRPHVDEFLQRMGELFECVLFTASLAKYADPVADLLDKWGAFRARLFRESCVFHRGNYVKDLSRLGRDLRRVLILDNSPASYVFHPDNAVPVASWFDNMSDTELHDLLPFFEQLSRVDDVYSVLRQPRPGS

[7] = target: T3, Nuclear receptor subfamily 0 group B member 1 (Homo sapiens, UniProt P51843); test: Luminescence-based cell-based high throughput dose response assay for inhibitors of the orphan nuclear receptor subfamily 0, group B, member 1 (DAX1; NR0B1). [Related pubchem assays (depositor defined):AID504766, AID504790]; type: functional
T3 sequence (P51843 whole entry): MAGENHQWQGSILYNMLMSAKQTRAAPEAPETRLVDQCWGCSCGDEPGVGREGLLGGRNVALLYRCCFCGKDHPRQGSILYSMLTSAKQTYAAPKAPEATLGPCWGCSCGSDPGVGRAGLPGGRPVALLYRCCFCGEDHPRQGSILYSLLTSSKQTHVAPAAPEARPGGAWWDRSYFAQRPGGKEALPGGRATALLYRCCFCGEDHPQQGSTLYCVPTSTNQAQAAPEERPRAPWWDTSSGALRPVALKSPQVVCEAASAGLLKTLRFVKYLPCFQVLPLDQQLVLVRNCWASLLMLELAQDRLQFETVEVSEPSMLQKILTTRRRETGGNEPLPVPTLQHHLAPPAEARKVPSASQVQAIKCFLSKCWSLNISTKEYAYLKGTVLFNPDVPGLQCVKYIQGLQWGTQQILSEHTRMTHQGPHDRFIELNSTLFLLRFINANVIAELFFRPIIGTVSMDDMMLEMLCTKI

HEK293 = test: cells; type: functional, cell-based; details: Homo sapiens
[8] = target: T4, Heat shock factor protein 1 (Mus musculus, UniProt P38532); test: decrease of HSF1-responsive luciferase luminescence – cell-based, NIH3T3, dose retest, confirmation (AID 2382); type: functional;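 further: NIH3T3 fibroblasts with HSF1-driven luciferase reporter stressed by proteasome inhibitor MG132; luminescence from HSF1-driven luciferase expression after 8 hours of MG132 stress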
T4 sequence (P38532 whole entry): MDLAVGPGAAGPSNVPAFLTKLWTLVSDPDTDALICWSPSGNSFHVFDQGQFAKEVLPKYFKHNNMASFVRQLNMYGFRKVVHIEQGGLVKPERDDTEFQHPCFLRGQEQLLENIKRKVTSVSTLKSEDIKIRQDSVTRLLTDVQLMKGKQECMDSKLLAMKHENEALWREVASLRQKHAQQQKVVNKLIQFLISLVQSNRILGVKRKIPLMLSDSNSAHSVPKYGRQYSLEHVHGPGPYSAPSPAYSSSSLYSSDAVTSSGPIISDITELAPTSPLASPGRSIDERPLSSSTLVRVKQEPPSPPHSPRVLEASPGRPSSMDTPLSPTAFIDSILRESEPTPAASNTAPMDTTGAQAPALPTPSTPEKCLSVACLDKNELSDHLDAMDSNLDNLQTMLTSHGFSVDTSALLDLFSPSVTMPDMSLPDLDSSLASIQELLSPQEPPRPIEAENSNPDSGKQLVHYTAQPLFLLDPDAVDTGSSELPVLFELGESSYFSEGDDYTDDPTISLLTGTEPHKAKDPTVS

Prothrombin = Prothrombin (Homo sapiens, UniProt P00734); test: Thrombin 1536 HTS Dose Response Confirmation. [Related pubchem assays: 1046 (Thrombin 1536 HTS; hits were confirmed in this assay)]; type: functional
Major prion protein = Major prion protein (Homo sapiens, UniProt P04156); type: functional, cell-based
[9] = target: NAD-dependent protein deacylase sirtuin-5, mitochondrial (Homo sapiens, UniProt Q9NXA8); test: sirtuin-5 deacylation blockers, concentration series – biochemical, fluorescence imaging, cherry-pick, set 5, dose response (AID 720591);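 further: desuccinylation of succinyl peptide AMC substrate read as fluorescence after trypsin release; potency of inhibitors that lower fluorescence and may act on trypsin instead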
Protein Wnt-3a = Protein Wnt-3a (Mus musculus, UniProt P27467); test: antagonism of Wnt3a pathway luciferase reporter – Wnt-LIGHT cells, luminescence, selectivity assay for Gli-SUFU antagonist project, dose response (AID 651570); type: functional; details: read-out: IC50_Mean;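 further: Wnt-LIGHT reporter cells stimulated with conditioned medium from Wnt3a-producing cells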

Question: Which EC50 [1] does the source give for `NC(=O)c1cccnc1Nc1cccc([N+](=O)[O-])c1` here?
Answer: 2.98 µM (active)

Question: For `C[C@@H]1CN([C@@H](C)CO)C(=O)Cc2cc(NC(=O)NC3CCCCC3)ccc2O[C@H]1CN(C)Cc1ccc(-c2ccccc2)cc1`, which AC50 [2] is on record?
Answer: 49.5 µM (active)

Question: And the AC50 (Paired box protein Pax-8)?
Answer: 8.66 µM (active)

Question: What about the AC50 [3] of the same molecule?
Answer: 31.8 µM (active)

Question: And the AC50 [4]?
Answer: 34 µM (active)

Question: For `COc1ccc(NC(=O)Nc2ccc3c(c2)C(=O)N([C@H](C)CO)C[C@@H](C)[C@@H](CN(C)C(=O)Cc2ccccc2)OCCCC[C@H](C)O3)cc1`, which AC50 (Paired box protein Pax-8) is on record?
Answer: 30.9 µM (active)

Question: And the AC50 [3]?
Answer: 16.6 µM (active)

Question: What about the AC50 [4] of the same molecule?
Answer: > 70 µM (inactive)

Question: For `O=C(/C=C/c1cccc([N+](=O)[O-])c1)Nc1ccc(NC(=O)c2cccs2)cc1`, which IC50 [5] is on record?
Answer: 27.3 µM (inactive)

Question: And the IC50 [6]?
Answer: 4.11 µM (active)

Question: With `CC1(C)Cc2c(sc3nc(C4CC4)n(N)c(=O)c23)CO1` as the molecule, how does the IC50 [7] read?
Answer: > 67.6 µM (inactive)

Question: And the IC50 (HEK293)?
Answer: > 67.6 µM (inactive)

Question: What about the EC50 [8] of the same molecule?
Answer: > 195 µM (not active)

Question: Which IC50 (Prothrombin) does the source give for `NNC(=O)CN1C(=O)Nc2ccc(Br)cc2C1c1ccccc1` (stereo unspecified) here?
Answer: > 50 µM (not active)

Question: For `CCc1c(C)nc2c(Br)cccc2c1SCCC#N`, which IC50 (Major prion protein) is on record?
Answer: 2.52 µM (active)

Question: What about the IC50 (cells) of the same molecule?
Answer: > 138 µM (inactive)

Question: What about the AC50 [9] of the same molecule?
Answer: > 30 µM (inactive)

Question: Which results are given for `CCN1C(=O)C2(C(C(=O)c3cc4ccccc4o3)=C(O)C(=O)N2CCCN2CCOCC2)c2ccccc21` (stereo unspecified)?
Answer: IC50 (Major prion protein): 2.08 µM (active); IC50 (cells): > 138 µM (inactive)

Question: For `CCCCOc1ccc(N2C(N)=NC(N)=NC23CCCCC3)cc1`, which IC50 (Protein Wnt-3a) is on record?
Answer: 18.3 µM (active)

Question: With `COc1ccc(C(=O)C2CCCN(Cc3c[nH]nc3-c3ccccc3)C2)cc1OC` (stereo unspecified) as the molecule, how does the AC50 [9] read?
Answer: > 30 µM (inactive)

Question: For `CN(C(=S)NC(=O)c1ccc(F)cc1)C1CCCCC1`, which EC50 [1] is on record?
Answer: 8.79 µM (active)

Question: Which IC50 (Major prion protein) does the source give for `Cc1cc(NC(=O)CSc2nc(O)c(C#N)c(-c3ccccc3)n2)no1` here?
Answer: 7.14 µM (active)

Question: And the IC50 (cells)?
Answer: > 138 µM (inactive)

Question: With `CCOC(=O)c1c(C)[nH]c(C)c1C(=O)COC(=O)c1ccccc1O` as the molecule, how does the AC50 [9] read?
Answer: 20 µM (active)

Question: With `COC(=O)C1=C(c2cc3ccccc3o2)C[C@@H]2CC[C@H]1N2C(=O)N1CCC(C)CC1` as the molecule, how does the IC50 (Protein Wnt-3a) read?
Answer: 24.4 µM (inactive)
